These results are taken from publication PMC6766655, “AhR–ROR-γt complex is a therapeutic target for MAP4K3/GLK^highIL-17A^high subpopulation of systemic lupus erythematosus” (The FASEB Journal, 2019).

In the assay the target is T1, GLK kinase domain (Homo sapiens, UniProt Q8IVH8).
T1 construct: Recombinant proteins of GLK kinase domain plus recombinant proteins of GST-tagged kinase-dead PKC-θ (K409W) were subjected to in vitro kinase assays; made in house; host or cells: Escherichia coli (BL21)
T1 sequence (Q8IVH8 16-273 limits assumed): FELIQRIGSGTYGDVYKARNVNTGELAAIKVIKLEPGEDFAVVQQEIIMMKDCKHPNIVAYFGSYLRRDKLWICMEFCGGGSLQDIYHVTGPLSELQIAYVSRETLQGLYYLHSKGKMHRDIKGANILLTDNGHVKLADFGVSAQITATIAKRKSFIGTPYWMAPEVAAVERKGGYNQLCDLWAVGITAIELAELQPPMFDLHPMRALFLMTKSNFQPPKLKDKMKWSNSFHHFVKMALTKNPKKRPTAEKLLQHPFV
As to the kind of experiment: In vitro GLK kinase assay with kinase-dead PKC-θ (K409W) as substrate. The conditions noted are these: GST-tagged kinase-dead PKC-θ (K409W) substrate; Fig. 3B. Format: biochemical. On the procedure:
GLK kinase activity was determined by measuring the rate of ADP production in the in vitro kinase reaction using ADP-Glo Kinase Assay Kit (Promega). For the kinase reaction, recombinant proteins of the GLK kinase domain (1 μg) were incubated with recombinant proteins of kinase-dead PKC-θ (K409W; 0.15 μg) plus ATP (0.1 mM) or myelin basic protein (MilliporeSigma) plus ATP (0.1 mM) in kinase buffer [40 mM Tris-HCl (pH 7.5), 20 mM MgCl2, 0.1 mg/ml bovine serum albumin, 10 mM DTT, and 0.1 mM Na3VO4] for 30 min at room temperature.
Cell-based high‐throughput screening was conducted against a representative library of 100,000 molecules at ∼10 μM. The Chinese hamster ovary CHO-K1 (ATCC, CCL-61) cells expressing GLK and NF-κB luciferase (Luc) reporter were used. The reaction volume was 5 μl (500 cells) per well in 1536‐well plates. There was no positive control. This high‐throughput screening campaign was successful, with a determined Z' factor of 0.57 ∼ 0.60. […] At the end, 1392 compounds were identified for high inhibition (>80%) of the GLK-induced NF-κB luciferase activity of CHO‐GLK‐Luc cells. […]
Figure 3 Verteporfin (C1) blocks the AhR–ROR-γt complex in human autoimmune T cells. […] D) Quantification of the PLA signals shown in panel C. *P < 0.05, ***P < 0.001 (2-tailed Student’s t test).

For verteporfin, the “GLK kinase activity in vitro” value is reported as “efficiently inhibited”.
